The record followed here is ChEMBL document CHEMBL4387706, “Discovery of Novel Spiroindoline Derivatives as Selective Tankyrase Inhibitors” (J Med Chem, 2019).

The target in one assay is T1, Tankyrase 1/2 (Homo sapiens, UniProt Q9H2K2+O95271).
T1 sequence (Q9H2K2 whole entry): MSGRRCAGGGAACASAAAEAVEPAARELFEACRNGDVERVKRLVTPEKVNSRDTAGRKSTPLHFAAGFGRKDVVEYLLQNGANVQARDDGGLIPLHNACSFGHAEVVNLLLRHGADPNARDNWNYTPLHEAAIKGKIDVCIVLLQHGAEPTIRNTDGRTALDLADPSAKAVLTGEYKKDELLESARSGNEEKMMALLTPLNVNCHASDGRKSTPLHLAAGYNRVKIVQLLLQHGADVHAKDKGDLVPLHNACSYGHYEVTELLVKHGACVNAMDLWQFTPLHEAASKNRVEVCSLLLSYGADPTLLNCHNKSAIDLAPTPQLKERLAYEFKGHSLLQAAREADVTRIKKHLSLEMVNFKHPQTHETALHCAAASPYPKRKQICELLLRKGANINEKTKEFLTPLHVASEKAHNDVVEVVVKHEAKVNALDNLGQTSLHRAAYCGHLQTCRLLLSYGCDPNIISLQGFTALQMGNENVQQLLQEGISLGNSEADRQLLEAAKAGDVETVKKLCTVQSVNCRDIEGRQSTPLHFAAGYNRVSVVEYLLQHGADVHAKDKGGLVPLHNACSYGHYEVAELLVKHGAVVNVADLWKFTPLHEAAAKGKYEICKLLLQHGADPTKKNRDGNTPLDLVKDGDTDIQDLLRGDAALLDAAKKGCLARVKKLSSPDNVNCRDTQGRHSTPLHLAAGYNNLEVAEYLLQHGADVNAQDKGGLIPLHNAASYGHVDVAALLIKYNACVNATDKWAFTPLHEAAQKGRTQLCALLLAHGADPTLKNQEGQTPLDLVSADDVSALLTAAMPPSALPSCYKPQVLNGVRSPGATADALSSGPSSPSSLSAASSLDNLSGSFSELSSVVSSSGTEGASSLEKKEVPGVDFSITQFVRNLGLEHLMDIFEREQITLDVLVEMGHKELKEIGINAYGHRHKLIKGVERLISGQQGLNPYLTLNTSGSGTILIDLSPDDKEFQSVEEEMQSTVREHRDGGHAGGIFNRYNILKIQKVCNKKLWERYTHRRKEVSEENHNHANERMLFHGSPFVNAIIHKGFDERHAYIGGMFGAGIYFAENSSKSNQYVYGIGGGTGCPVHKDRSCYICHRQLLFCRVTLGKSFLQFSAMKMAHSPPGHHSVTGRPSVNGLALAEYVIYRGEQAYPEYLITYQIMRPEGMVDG
T1 sequence (O95271 whole entry): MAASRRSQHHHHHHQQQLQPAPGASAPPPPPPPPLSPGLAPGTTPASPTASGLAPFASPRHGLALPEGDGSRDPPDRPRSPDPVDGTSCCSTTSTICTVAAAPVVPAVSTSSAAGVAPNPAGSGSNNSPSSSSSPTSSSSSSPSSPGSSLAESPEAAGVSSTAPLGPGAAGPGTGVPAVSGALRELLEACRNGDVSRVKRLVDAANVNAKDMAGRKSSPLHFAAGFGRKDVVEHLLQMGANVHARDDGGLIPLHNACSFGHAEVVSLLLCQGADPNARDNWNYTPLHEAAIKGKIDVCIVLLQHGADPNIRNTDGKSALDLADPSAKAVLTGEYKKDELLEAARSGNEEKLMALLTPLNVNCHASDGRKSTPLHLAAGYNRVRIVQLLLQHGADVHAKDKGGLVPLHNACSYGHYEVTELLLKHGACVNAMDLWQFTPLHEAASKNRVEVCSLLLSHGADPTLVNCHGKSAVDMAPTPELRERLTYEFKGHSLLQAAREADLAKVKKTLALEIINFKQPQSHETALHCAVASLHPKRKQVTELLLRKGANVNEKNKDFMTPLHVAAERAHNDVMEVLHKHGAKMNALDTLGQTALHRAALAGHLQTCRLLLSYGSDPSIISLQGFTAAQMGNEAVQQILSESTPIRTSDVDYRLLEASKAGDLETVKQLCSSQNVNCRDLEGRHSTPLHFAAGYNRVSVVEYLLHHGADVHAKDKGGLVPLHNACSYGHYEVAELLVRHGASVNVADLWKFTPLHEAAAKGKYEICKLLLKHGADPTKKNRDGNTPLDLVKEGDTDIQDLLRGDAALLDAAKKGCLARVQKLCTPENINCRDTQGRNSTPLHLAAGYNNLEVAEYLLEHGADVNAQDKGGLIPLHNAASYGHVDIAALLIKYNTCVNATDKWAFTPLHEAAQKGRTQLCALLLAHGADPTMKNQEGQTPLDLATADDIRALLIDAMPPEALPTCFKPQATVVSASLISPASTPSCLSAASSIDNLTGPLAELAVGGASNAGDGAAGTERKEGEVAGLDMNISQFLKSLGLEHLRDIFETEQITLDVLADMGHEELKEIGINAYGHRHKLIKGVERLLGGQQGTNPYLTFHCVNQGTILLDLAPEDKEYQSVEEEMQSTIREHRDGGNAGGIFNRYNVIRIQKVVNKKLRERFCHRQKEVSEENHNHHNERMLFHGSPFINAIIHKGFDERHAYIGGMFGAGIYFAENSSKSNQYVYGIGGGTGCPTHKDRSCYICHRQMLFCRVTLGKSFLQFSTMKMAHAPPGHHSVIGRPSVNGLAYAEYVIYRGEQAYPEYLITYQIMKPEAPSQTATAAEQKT

For assay [1], the target named is 5-hydroxytryptamine receptor 1A (Homo sapiens) (UniProt P08908). The assay is described as follows: Displacement of [3H]8-OH-DPAT from full-length recombinant human 5HT1A receptor expressed in CHOK1 cells at 10 uM measured after 60 mins by scintillation counting method relative to control. The assay is classed as cell-based. On the technique in general: Displacement assays read how much labelled ligand stays bound in the presence of the test substance.

For assay [2], the target named is Prostaglandin G/H synthase 2 (Homo sapiens) (UniProt P35354). The assay is described as follows: Inhibition of human recombinant COX2 expressed in Sf21 cells at 10 uM using arachidonic acid as substrate preincubated for 15 mins followed by substrate addition and measured after 3 mins by ampliflu red dye-based spectrofluorimetric method relative to control.
The target of assay [3] is Sodium-dependent dopamine transporter (Homo sapiens) (UniProt Q01959). The assay is described as follows: Displacement of [125I]RTI-55 from full-length recombinant human DAT receptor expressed in CHOS cells at 10 uM measured after 3 hrs by scintillation counting method relative to control. Type of assay: cell-based.
The target in assay [4] is Tyrosine-protein kinase Lck (Homo sapiens) (UniProt P06239). The assay is described as follows: Inhibition of full-length recombinant human LCK expressed in insect cells at 10 uM using poly(Glu:Tyr) as substrate preincubated for 15 mins followed by substrate addition and measured after 30 mins in presence of [gamma32P]ATP by scintillation counting method relative to control.

In assay [5] the target is Muscarinic acetylcholine receptor M1 (Homo sapiens) (UniProt P11229). The assay is described as follows: Displacement of [3H]N-Methylscopolamine from full-length recombinant human M1 receptor expressed in CHOK1 cells at 10 uM measured after 120 mins by scintillation counting method relative to control. The assay is classed as cell-based.
Sequence of Muscarinic acetylcholine receptor M1 (Homo sapiens) (P11229 whole entry): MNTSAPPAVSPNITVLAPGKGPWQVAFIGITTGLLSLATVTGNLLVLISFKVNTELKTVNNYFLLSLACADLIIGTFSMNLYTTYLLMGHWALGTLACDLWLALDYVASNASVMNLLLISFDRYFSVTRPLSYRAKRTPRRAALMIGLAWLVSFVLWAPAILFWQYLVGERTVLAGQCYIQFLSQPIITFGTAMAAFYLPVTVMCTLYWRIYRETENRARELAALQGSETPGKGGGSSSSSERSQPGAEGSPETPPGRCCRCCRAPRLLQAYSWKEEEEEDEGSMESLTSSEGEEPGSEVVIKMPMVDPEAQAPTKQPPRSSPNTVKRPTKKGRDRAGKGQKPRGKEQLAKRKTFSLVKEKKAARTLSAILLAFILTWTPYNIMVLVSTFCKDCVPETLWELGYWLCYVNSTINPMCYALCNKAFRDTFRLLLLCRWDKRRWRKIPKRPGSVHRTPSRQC

Sequence of Sodium-dependent dopamine transporter (Homo sapiens) (Q01959 whole entry): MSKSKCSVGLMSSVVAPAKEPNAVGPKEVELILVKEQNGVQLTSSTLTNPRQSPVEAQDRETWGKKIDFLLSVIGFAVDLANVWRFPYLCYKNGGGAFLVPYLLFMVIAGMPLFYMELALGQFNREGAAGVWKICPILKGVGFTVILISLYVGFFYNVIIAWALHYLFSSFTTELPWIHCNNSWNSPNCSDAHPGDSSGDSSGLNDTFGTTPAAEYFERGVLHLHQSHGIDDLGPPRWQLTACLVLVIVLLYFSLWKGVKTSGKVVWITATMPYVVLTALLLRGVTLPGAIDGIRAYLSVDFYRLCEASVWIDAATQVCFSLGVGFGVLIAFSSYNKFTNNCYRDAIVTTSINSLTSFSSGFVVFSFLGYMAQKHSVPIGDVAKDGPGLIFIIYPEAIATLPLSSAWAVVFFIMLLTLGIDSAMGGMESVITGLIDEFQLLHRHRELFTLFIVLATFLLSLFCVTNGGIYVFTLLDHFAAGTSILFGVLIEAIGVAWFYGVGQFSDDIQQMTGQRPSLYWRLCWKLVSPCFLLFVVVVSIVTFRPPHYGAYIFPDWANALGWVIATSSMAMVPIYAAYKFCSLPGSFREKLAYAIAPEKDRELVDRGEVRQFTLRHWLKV
Sequence of Tyrosine-protein kinase Lck (Homo sapiens) (P06239 2-509 limits assumed): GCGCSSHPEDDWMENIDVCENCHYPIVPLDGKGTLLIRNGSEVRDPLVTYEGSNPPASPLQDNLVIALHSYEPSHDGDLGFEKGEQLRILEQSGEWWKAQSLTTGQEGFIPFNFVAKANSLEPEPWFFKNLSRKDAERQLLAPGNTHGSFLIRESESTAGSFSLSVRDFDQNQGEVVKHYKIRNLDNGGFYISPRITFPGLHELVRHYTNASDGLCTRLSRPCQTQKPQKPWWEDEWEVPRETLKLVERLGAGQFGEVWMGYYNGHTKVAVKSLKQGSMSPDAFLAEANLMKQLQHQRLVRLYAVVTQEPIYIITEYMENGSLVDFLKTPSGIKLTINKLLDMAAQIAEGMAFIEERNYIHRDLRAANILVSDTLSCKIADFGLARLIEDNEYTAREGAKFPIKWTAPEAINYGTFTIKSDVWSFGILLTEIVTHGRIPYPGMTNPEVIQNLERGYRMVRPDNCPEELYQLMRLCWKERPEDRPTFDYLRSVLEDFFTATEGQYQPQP
Sequence of 5-hydroxytryptamine receptor 1A (Homo sapiens) (P08908 whole entry): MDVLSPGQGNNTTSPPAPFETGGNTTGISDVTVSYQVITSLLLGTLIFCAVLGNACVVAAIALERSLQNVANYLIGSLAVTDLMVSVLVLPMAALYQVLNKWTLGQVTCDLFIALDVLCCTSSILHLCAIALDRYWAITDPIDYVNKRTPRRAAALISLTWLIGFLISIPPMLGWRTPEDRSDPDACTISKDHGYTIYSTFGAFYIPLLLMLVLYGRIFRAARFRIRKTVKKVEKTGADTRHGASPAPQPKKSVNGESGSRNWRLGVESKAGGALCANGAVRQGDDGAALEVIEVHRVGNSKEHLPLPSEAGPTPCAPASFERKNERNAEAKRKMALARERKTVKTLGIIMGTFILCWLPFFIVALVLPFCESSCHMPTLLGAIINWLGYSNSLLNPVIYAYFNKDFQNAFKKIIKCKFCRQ
Sequence of Prostaglandin G/H synthase 2 (Homo sapiens) (P35354 whole entry): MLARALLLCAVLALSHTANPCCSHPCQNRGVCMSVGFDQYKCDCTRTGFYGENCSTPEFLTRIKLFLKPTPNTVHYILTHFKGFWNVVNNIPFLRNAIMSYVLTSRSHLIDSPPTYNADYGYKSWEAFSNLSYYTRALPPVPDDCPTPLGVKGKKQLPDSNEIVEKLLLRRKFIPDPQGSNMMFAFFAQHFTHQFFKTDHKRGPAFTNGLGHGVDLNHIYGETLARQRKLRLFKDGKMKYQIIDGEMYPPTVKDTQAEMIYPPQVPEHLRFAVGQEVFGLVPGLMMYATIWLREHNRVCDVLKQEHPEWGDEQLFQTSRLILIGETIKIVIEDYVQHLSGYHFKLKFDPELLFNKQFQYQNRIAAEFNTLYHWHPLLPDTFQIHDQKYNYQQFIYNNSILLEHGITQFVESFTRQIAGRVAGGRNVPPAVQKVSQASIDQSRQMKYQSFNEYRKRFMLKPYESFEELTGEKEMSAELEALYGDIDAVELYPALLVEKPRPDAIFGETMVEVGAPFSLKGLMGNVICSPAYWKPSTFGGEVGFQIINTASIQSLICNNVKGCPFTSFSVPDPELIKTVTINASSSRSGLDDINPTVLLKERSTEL
Description for Tankyrase 1/2: Inhibition of TNKS/TNKS2 (unknown origin) expressed in human DLD1 cells assessed as reduction in Wnt-signaling measured after 24 hrs by TCF-luciferase reporter gene assay

For orientation: IC50 means the midpoint of a concentration-inhibition curve. A higher IC50 goes with weaker potency. As to `COc1ccccc1N1CCN(c2nc3c(c(=O)[nH]2)CCCC3)CC1`, the IC50 against Tankyrase 1/2 is listed as 233 nM.
Usually inhibition stands for the share of the control response that was lost under treatment. As for `O=c1[nH]c(N2CCC3(CC2)CN(CCO)c2cc(F)cc(F)c23)nc2c1CCCC2`, the inhibition in assay [1], in assay [2], in assay [3], in assay [4] and in assay [5] was more than 20% throughout.
